These results are taken from patent US6849405B2, “Translation enhancer element of the human amyloid precursor protein gene” (The Brigham and Women's Hospital, Inc., priority 1997, dated 2005).

Common to all, as to format: cell-based
Assay [1] concerns Apo-E protein synthesis. Briefly: Apo-E protein synthesis (internal standard), primary astrocytes. Particulars: primary human astrocytes. The method, then: (§1) Secretion and labeling of APP(s) (protease-nexin-2) from primary astrocytes by IL-1 was measured in a separate set of experiments. Medium from 100 mm dishes (10 ml) of astrocyte cultures was collected after a 2-hour pulse labeling with 200 μCi/ml [^35S]-methionine. APP in 5 ml of precleared medium was immunoprecipitated using a 1:1500 dilution of rabbit polyclonal serum specific for amino acids 595-611 of APP (R1736, D. Selko). Apolipoprotein E was immunoprecipitated from 5 ml of culture supernatant using a 1:200 dilution of a polyclonal antiserum (Chemicon).
(§2) In all labeling experiments, immunoprecipitated protein was collected by the binding of antibody-labeled antigen complexes to Protein A Sepharose™ beads. Immunoprecipitated samples were applied to 10-20% tris-tricine gels (Novex) and the samples were electrophoresed in tris-tricine buffer according to the manufacturer's instructions. The gels were fixed with 25% methanol, […] for 1 hour, treated with fluorographic reagent (Amplify, Amersham) for 30 minutes, dried, and exposed to X-omat Kodak film overnight at −80° C.

Assay [2] concerns APP(s) secretion from primary human astrocytes. Kind of assay: Secretion of APP(s) (protease-nexin II) into medium from primary astrocytes. Particulars: 2 hour pulse labeling. Here is the method: as §1, §2
For assay [3], the system named is APP protein synthesis in primary human fetal astrocytes. Kind of assay: Intracellular APP protein synthesis, [35S]-methionine pulse labeling and immunoprecipitation, primary astrocytes. Particulars: 0.5 ng/ml, 16 hours, 30 minute [35S]-methionine labeling. The method, then:
Primary human astrocytes were prepared by trypsinization of human fetal brain tissue by a previously described method (Das, et al., Neuron 14; 447 (1995)). Cells were seeded onto poly-L-lysine (10 μg/ml) coated plates and were grown to 70% confluence in DMEM medium, (low glucose) supplemented with 10% fetal bovine serum. In order to eliminate microglia, the cultures were treated with 5 mM H-Leu-O-methylester (Guilian, J. Neurosci. Res. 18:155 (1987)). For immunofluorescence, cells were replated at a density of 100,000 cells per 60-mm petri dish on poly-L-lysine coated glass coverslips and grown for 24 hours in 0.5 ml of medium to allow the cells to attach. The presence of glial fibrillary acidic protein (GFAP) was detected by immunofluorescent staining of formaldehyde fixed cells using a 1:10 dilution of rabbit IgG1 antibody specific for human GFAP. Primary GFAP-specific antibody was added to the coverslips for 30 minutes at room temperature in phosphate buffered saline and 10% goat serum. […] Fluorescence microscopy scored the cells used in the metabolic experiments as 95% pure astrocytes. […]
Intracellular APP protein synthesis was determined in primary astrocytes after plating cells in equal numbers into 8 microtiter wells prior to each treatment (1×10^5 cells per well in 96 well dishes). […]

The test system of assay [4] is APP synthesis in human astrocytoma (U373MG) cells. Briefly: APP synthesis, [35S]-methionine labeling and immunoprecipitation, astrocytoma cells. Particulars: 0.5 ng/ml, 16 hrs, maximal. Here is the method:
Primary human astrocytes were prepared by trypsinization of human fetal brain tissue by a previously described method (Das, et al., Neuron 14; 447 (1995)). Cells were seeded onto poly-L-lysine (10 μg/ml) coated plates and were grown to 70% confluence in DMEM medium, (low glucose) supplemented with 10% fetal bovine serum. In order to eliminate microglia, the cultures were treated with 5 mM H-Leu-O-methylester (Guilian, J. Neurosci. Res. 18:155 (1987)). For immunofluorescence, cells were replated at a density of 100,000 cells per 60-mm petri dish on poly-L-lysine coated glass coverslips and grown for 24 hours in 0.5 ml of medium to allow the cells to attach. The presence of glial fibrillary acidic protein (GFAP) was detected by immunofluorescent staining of formaldehyde fixed cells using a 1:10 dilution of rabbit IgG1 antibody specific for human GFAP. Primary GFAP-specific antibody was added to the coverslips for 30 minutes at room temperature in phosphate buffered saline and 10% goat serum. The secondary antibodies used were goat anti-rabbit IgG conjugated to fluorescein isothiocyanate at a dilution of 1:100 (Boehringer). Fluorescence microscopy scored the cells used in the metabolic experiments as 95% pure astrocytes. […] The U373MG astrocytoma cell line was cultured on 100 mm uncoated dishes to 60-80% confluence in DMEM medium supplemented with 10% fetal bovine serum. […]

With interleukin-1α [IL-1α], the ApoE protein synthesis entry in assay [1] is listed as “no increase”. Moreover, in assay [2] (medium), the “increased accumulation of APP(s)” value came to 50%. For the same substance, the “increase in the synthesis of intracellular APP” value in assay [3] was found to be 4 fold. Also, the “increase in rate of APP synthesis” value in assay [4] is 2.8 fold.
interleukin-1β [IL-1β]: in assay [1], the ApoE protein synthesis entry is listed as “no increase”. Besides, the “enhanced secretion of APP(s) into the medium” value in assay [2] was found to be 1.8 fold. Moreover, the “increase in the synthesis of intracellular APP” value in assay [3] is 3 fold. Also, in assay [4], the “increase in rate of APP synthesis” value is recorded as 4.3 fold.
